{"source": "the supplement of paper PMC8671470", "data": [{"system": "HEL", "assay": "cell viability (% survival relative to DMSO control, bortezomib = 0%); higher = less cytotoxic", "conditions": "1 nM; 72 h", "in_short": "(§1)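 Percent survival figures are means of duplicate wells. They were obtained by CellTiter-Glo luminescence after 10 AML and 5 CML cell lines spent 72 h at 37 °C with 5% CO2 in 384-well plates with compounds at 1, 10, 100, 1000 or 10000 nM. Vehicle was set to 100% and a 10 µM positive control to 0%.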", "units": {"cell viability": "%"}, "values": [{"compound": "CC(C)c1cc2c(c(O)c1O)[C@@]1(C(=O)O)CCCC(C)(C)[C@@H]1CC2", "note": "[Carnosic acid]", "cell viability": 100}, {"compound": "CCN(CC)CCCC(C)Nc1ccnc2cc(Cl)ccc12", "note": "(stereo unspecified) [Chloroquine]", "cell viability": 95.4}, {"compound": "Nc1nc(Cl)nc2c1ncn2[C@H]1C[C@H](O)[C@@H](CO)O1", "note": "[Cladribine]", "cell viability": 105}, {"compound": "NCCCC(N)(C(=O)O)C(F)F", "note": "(stereo unspecified) [Difluoromethylornithine]", "cell viability": 100}]}, {"system": "HEL", "assay": "cell viability (% survival relative to DMSO control, bortezomib = 0%); higher = less cytotoxic", "conditions": "10 nM; 72 h", "in_short": "as §1", "units": {"cell viability": "%"}, "values": [{"compound": "COc1ccc(S(=O)(=O)N2CCN(S(=O)(=O)c3ccc4c(c3)OCCO4)CC2)cc1", "note": "[BML283]", "cell viability": 88.3}, {"compound": "O=c1cc(-c2ccccc2)oc2cc(O)c(O)c(O)c12", "note": "[Baicalein]", "cell viability": 88.2}, {"compound": "COC(=O)[C@]12CCC(C)(C)C[C@H]1[C@H]1C(=O)C=C3[C@@]4(C)C=C(C#N)C(=O)C(C)(C)[C@@H]4CC[C@@]3(C)[C@]1(C)CC2", "note": "[Bardoxolone methyl]", "cell viability": 92.6}, {"compound": "O=c1oc2c(O)c(O)cc3c(=O)oc4c(O)c(O)cc1c4c23", "note": "[Benzoaric Acid]", "cell viability": 100}, {"compound": "Cc1c(-c2ccc(-c3ccccc3F)cc2)nc2ccc(F)cc2c1C(=O)O", "note": "[Brequinar]", "cell viability": 99.2}, {"compound": "O=C1O/C(=C/Br)CCC1c1cccc2ccccc12", "note": "(stereo unspecified) [Bromoenol Lactone]", "cell viability": 103}, {"compound": "O=C(O)CCCCC(CCSCc1ccccc1)SCc1ccccc1", "note": "(stereo unspecified) [CPI-613]", "cell viability": 91}, {"compound": "CC(C)c1cc2c(c(O)c1O)[C@@]1(C(=O)O)CCCC(C)(C)[C@@H]1CC2", "note": "[Carnosic acid]", "cell viability": 112}, {"compound": "CCN(CC)CCCC(C)Nc1ccnc2cc(Cl)ccc12", "note": "(stereo unspecified) [Chloroquine]", "cell viability": 94.5}, {"compound": "Nc1nc(Cl)nc2c1ncn2[C@H]1C[C@H](O)[C@@H](CO)O1", "note": "[Cladribine]", "cell viability": 99.2}, {"compound": "NCCCC(N)(C(=O)O)C(F)F", "note": "(stereo unspecified) [Difluoromethylornithine]", "cell viability": 96.8}]}, {"system": "HEL", "assay": "cell viability (% survival relative to DMSO control, bortezomib = 0%); higher = less cytotoxic", "conditions": "100 nM; 72 h", "in_short": "as §1", "units": {"cell viability": "%"}, "values": [{"compound": "COc1ccc(S(=O)(=O)N2CCN(S(=O)(=O)c3ccc4c(c3)OCCO4)CC2)cc1", "note": "[BML283]", "cell viability": 96.7}, {"compound": "O=c1cc(-c2ccccc2)oc2cc(O)c(O)c(O)c12", "note": "[Baicalein]", "cell viability": 109}, {"compound": "COC(=O)[C@]12CCC(C)(C)C[C@H]1[C@H]1C(=O)C=C3[C@@]4(C)C=C(C#N)C(=O)C(C)(C)[C@@H]4CC[C@@]3(C)[C@]1(C)CC2", "note": "[Bardoxolone methyl]", "cell viability": 117}, {"compound": "O=c1oc2c(O)c(O)cc3c(=O)oc4c(O)c(O)cc1c4c23", "note": "[Benzoaric Acid]", "cell viability": 107}, {"compound": "Cc1c(-c2ccc(-c3ccccc3F)cc2)nc2ccc(F)cc2c1C(=O)O", "note": "[Brequinar]", "cell viability": 102}, {"compound": "O=C1O/C(=C/Br)CCC1c1cccc2ccccc12", "note": "(stereo unspecified) [Bromoenol Lactone]", "cell viability": 91.3}, {"compound": "O=C(O)CCCCC(CCSCc1ccccc1)SCc1ccccc1", "note": "(stereo unspecified) [CPI-613]", "cell viability": 106}, {"compound": "CC(C)c1cc2c(c(O)c1O)[C@@]1(C(=O)O)CCCC(C)(C)[C@@H]1CC2", "note": "[Carnosic acid]", "cell viability": 92.1}, {"compound": "CCN(CC)CCCC(C)Nc1ccnc2cc(Cl)ccc12", "note": "(stereo unspecified) [Chloroquine]", "cell viability": 89.6}, {"compound": "Nc1nc(Cl)nc2c1ncn2[C@H]1C[C@H](O)[C@@H](CO)O1", "note": "[Cladribine]", "cell viability": 3.91}, {"compound": "NCCCC(N)(C(=O)O)C(F)F", "note": "(stereo unspecified) [Difluoromethylornithine]", "cell viability": 90.1}]}, {"system": "HEL", "assay": "cell viability (% survival relative to DMSO control, bortezomib = 0%); higher = less cytotoxic", "conditions": "1000 nM; 72 h", "in_short": "as §1", "units": {"cell viability": "%"}, "values": [{"compound": "COc1ccc(S(=O)(=O)N2CCN(S(=O)(=O)c3ccc4c(c3)OCCO4)CC2)cc1", "note": "[BML283]", "cell viability": 90.8}, {"compound": "O=c1cc(-c2ccccc2)oc2cc(O)c(O)c(O)c12", "note": "[Baicalein]", "cell viability": 137}, {"compound": "COC(=O)[C@]12CCC(C)(C)C[C@H]1[C@H]1C(=O)C=C3[C@@]4(C)C=C(C#N)C(=O)C(C)(C)[C@@H]4CC[C@@]3(C)[C@]1(C)CC2", "note": "[Bardoxolone methyl]", "cell viability": 84.7}, {"compound": "O=c1oc2c(O)c(O)cc3c(=O)oc4c(O)c(O)cc1c4c23", "note": "[Benzoaric Acid]", "cell viability": 92.3}, {"compound": "Cc1c(-c2ccc(-c3ccccc3F)cc2)nc2ccc(F)cc2c1C(=O)O", "note": "[Brequinar]", "cell viability": 69}, {"compound": "O=C1O/C(=C/Br)CCC1c1cccc2ccccc12", "note": "(stereo unspecified) [Bromoenol Lactone]", "cell viability": 99.8}, {"compound": "O=C(O)CCCCC(CCSCc1ccccc1)SCc1ccccc1", "note": "(stereo unspecified) [CPI-613]", "cell viability": 103}, {"compound": "CC(C)c1cc2c(c(O)c1O)[C@@]1(C(=O)O)CCCC(C)(C)[C@@H]1CC2", "note": "[Carnosic acid]", "cell viability": 100}, {"compound": "CCN(CC)CCCC(C)Nc1ccnc2cc(Cl)ccc12", "note": "(stereo unspecified) [Chloroquine]", "cell viability": 97.6}, {"compound": "Nc1nc(Cl)nc2c1ncn2[C@H]1C[C@H](O)[C@@H](CO)O1", "note": "[Cladribine]", "cell viability": 0.404}, {"compound": "NCCCC(N)(C(=O)O)C(F)F", "note": "(stereo unspecified) [Difluoromethylornithine]", "cell viability": 104}]}, {"system": "HEL", "assay": "cell viability (% survival relative to DMSO control, bortezomib = 0%); higher = less cytotoxic", "conditions": "10000 nM; 72 h", "in_short": "as §1", "units": {"cell viability": "%"}, "values": [{"compound": "COc1ccc(S(=O)(=O)N2CCN(S(=O)(=O)c3ccc4c(c3)OCCO4)CC2)cc1", "note": "[BML283]", "cell viability": 101}, {"compound": "O=c1cc(-c2ccccc2)oc2cc(O)c(O)c(O)c12", "note": "[Baicalein]", "cell viability": 75.4}, {"compound": "COC(=O)[C@]12CCC(C)(C)C[C@H]1[C@H]1C(=O)C=C3[C@@]4(C)C=C(C#N)C(=O)C(C)(C)[C@@H]4CC[C@@]3(C)[C@]1(C)CC2", "note": "[Bardoxolone methyl]", "cell viability": -0.0991}, {"compound": "O=c1oc2c(O)c(O)cc3c(=O)oc4c(O)c(O)cc1c4c23", "note": "[Benzoaric Acid]", "cell viability": 114}, {"compound": "Cc1c(-c2ccc(-c3ccccc3F)cc2)nc2ccc(F)cc2c1C(=O)O", "note": "[Brequinar]", "cell viability": 27.8}, {"compound": "O=C1O/C(=C/Br)CCC1c1cccc2ccccc12", "note": "(stereo unspecified) [Bromoenol Lactone]", "cell viability": 41.3}, {"compound": "O=C(O)CCCCC(CCSCc1ccccc1)SCc1ccccc1", "note": "(stereo unspecified) [CPI-613]", "cell viability": 73.8}, {"compound": "CC(C)c1cc2c(c(O)c1O)[C@@]1(C(=O)O)CCCC(C)(C)[C@@H]1CC2", "note": "[Carnosic acid]", "cell viability": 97.4}, {"compound": "CCN(CC)CCCC(C)Nc1ccnc2cc(Cl)ccc12", "note": "(stereo unspecified) [Chloroquine]", "cell viability": 104}, {"compound": "Nc1nc(Cl)nc2c1ncn2[C@H]1C[C@H](O)[C@@H](CO)O1", "note": "[Cladribine]", "cell viability": 0.141}, {"compound": "NCCCC(N)(C(=O)O)C(F)F", "note": "(stereo unspecified) [Difluoromethylornithine]", "cell viability": 95.9}]}, {"system": "K-562", "assay": "cell viability (% survival relative to DMSO control, bortezomib = 0%); higher = less cytotoxic", "conditions": "1 nM; 72 h", "in_short": "as §1", "units": {"cell viability": "%"}, "values": [{"compound": "COc1ccc(S(=O)(=O)N2CCN(S(=O)(=O)c3ccc4c(c3)OCCO4)CC2)cc1", "note": "[BML283]", "cell viability": 107}, {"compound": "O=c1cc(-c2ccccc2)oc2cc(O)c(O)c(O)c12", "note": "[Baicalein]", "cell viability": 104}, {"compound": "COC(=O)[C@]12CCC(C)(C)C[C@H]1[C@H]1C(=O)C=C3[C@@]4(C)C=C(C#N)C(=O)C(C)(C)[C@@H]4CC[C@@]3(C)[C@]1(C)CC2", "note": "[Bardoxolone methyl]", "cell viability": 106}, {"compound": "O=c1oc2c(O)c(O)cc3c(=O)oc4c(O)c(O)cc1c4c23", "note": "[Benzoaric Acid]", "cell viability": 111}, {"compound": "Cc1c(-c2ccc(-c3ccccc3F)cc2)nc2ccc(F)cc2c1C(=O)O", "note": "[Brequinar]", "cell viability": 98.1}, {"compound": "O=C1O/C(=C/Br)CCC1c1cccc2ccccc12", "note": "(stereo unspecified) [Bromoenol Lactone]", "cell viability": 102}, {"compound": "O=C(O)CCCCC(CCSCc1ccccc1)SCc1ccccc1", "note": "(stereo unspecified) [CPI-613]", "cell viability": 94}, {"compound": "CC(C)c1cc2c(c(O)c1O)[C@@]1(C(=O)O)CCCC(C)(C)[C@@H]1CC2", "note": "[Carnosic acid]", "cell viability": 105}, {"compound": "CCN(CC)CCCC(C)Nc1ccnc2cc(Cl)ccc12", "note": "(stereo unspecified) [Chloroquine]", "cell viability": 101}, {"compound": "Nc1nc(Cl)nc2c1ncn2[C@H]1C[C@H](O)[C@@H](CO)O1", "note": "[Cladribine]", "cell viability": 110}, {"compound": "NCCCC(N)(C(=O)O)C(F)F", "note": "(stereo unspecified) [Difluoromethylornithine]", "cell viability": 99.3}]}, {"system": "K-562", "assay": "cell viability (% survival relative to DMSO control, bortezomib = 0%); higher = less cytotoxic", "conditions": "10 nM; 72 h", "in_short": "as §1", "units": {"cell viability": "%"}, "values": [{"compound": "COc1ccc(S(=O)(=O)N2CCN(S(=O)(=O)c3ccc4c(c3)OCCO4)CC2)cc1", "note": "[BML283]", "cell viability": 95.2}, {"compound": "O=c1cc(-c2ccccc2)oc2cc(O)c(O)c(O)c12", "note": "[Baicalein]", "cell viability": 104}]}]}
